Laboratory results from ChEMBL document CHEMBL4431344, “Synthesis of potent and broad genotypically active NS5B HCV non-nucleoside inhibitors binding to the thumb domain allosteric site 2 of the viral polymerase” (Bioorg Med Chem Lett, 2016).

Key:
[1] = test system: Hepatitis C virus; test: Antiviral activity against HCV assessed as inhibition of viral RNA replication in replicon cells by luciferase reporter gene assay; type: functional, Hepacivirus hominis
[2] = target: RNA-directed RNA polymerase (Hepacivirus hominis, UniProt O39930); test: Inhibition of HCV NS5B RNA dependent RNA polymerase
RNA-directed RNA polymerase, sequence (O39930 whole entry): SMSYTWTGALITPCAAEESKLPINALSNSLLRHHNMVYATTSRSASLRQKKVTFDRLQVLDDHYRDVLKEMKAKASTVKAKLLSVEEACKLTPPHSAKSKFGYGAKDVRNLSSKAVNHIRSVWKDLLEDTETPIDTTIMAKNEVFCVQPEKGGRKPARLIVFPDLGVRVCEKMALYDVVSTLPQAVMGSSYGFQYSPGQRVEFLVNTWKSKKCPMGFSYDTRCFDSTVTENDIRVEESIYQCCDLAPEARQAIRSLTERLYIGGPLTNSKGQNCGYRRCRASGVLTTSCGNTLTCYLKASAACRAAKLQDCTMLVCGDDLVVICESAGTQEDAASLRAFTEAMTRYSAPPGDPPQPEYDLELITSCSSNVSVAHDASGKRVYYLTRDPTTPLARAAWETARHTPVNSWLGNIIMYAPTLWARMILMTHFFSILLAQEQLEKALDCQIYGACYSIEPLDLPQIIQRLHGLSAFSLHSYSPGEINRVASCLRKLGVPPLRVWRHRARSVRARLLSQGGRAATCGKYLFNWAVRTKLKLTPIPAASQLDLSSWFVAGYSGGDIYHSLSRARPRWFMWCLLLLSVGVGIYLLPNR

[3] = target: Genome polyprotein (Hepatitis C virus genotype 1b (strain HC-J4) (HCV), UniProt O92972); test: Inhibition of HCV genotype 1b J4 NS5B RNA dependent RNA polymerase; design: species or system Hepatitis C virus isolate HC-J4
Genome polyprotein (Hepatitis C virus genotype 1b (strain HC-J4) (HCV), UniProt O92972), sequence (O92972 2420-3010 limits assumed): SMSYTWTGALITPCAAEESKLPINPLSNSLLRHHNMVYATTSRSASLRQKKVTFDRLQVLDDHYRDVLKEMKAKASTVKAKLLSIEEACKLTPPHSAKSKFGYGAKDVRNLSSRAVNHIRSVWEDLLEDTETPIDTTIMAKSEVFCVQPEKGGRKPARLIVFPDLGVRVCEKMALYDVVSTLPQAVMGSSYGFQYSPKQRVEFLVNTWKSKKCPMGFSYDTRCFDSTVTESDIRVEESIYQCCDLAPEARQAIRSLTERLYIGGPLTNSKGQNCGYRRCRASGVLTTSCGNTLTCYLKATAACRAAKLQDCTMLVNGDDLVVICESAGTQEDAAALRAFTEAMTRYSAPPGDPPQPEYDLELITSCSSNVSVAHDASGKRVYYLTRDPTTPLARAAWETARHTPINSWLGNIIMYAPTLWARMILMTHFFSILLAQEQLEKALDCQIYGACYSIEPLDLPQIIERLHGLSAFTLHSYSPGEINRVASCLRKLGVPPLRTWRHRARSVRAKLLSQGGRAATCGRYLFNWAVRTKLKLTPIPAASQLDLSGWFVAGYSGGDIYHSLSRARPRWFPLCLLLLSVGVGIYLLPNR

[4] = target: Genome polyprotein (Hepatitis C virus genotype 1b (isolate Con1) (HCV), UniProt Q9WMX2); test: Inhibition of HCV genotype 1b Con1 NS5B RNA dependent RNA polymerase
Genome polyprotein (Hepatitis C virus genotype 1b (isolate Con1) (HCV), UniProt Q9WMX2), sequence (Q9WMX2 2420-3010 limits assumed): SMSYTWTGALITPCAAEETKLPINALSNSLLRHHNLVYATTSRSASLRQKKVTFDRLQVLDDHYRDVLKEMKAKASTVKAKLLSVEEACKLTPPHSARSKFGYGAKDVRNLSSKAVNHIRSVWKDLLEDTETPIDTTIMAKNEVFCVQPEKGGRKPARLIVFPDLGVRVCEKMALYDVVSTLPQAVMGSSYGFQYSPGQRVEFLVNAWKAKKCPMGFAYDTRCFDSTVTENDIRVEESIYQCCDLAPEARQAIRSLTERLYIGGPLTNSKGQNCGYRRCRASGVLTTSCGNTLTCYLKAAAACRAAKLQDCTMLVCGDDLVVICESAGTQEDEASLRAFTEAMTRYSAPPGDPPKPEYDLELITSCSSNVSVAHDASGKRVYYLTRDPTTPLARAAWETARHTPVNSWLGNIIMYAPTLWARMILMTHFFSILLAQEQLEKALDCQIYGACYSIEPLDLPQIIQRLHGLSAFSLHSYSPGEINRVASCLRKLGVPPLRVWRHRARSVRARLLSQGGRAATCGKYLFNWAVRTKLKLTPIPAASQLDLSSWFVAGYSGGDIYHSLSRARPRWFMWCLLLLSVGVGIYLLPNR

Cc1ccc(S(=O)(=O)Nc2cc(-c3ccccc3)sc2C(=O)O)c(C)c1
EC50 [1]: 5 µM
IC50 [2]: 1 µM

Cc1ccc(P(=O)(Nc2cc(-c3ccc(Cl)cc3)sc2C(=O)O)OCC2CCOCC2)c(C)c1 (stereo not given)
EC50 [1]: 0.32 µM
IC50 [3]: 0.154 µM

COP(=O)(Nc1cc(-c2ccc(Cl)cc2)sc1C(=O)O)c1ccc(Cl)cc1C (stereo not given)
EC50 [1]: 1.55 µM
IC50 [3]: 0.026 µM

CCOP(=O)(Nc1cc(-c2ccc(Cl)cc2)sc1C(=O)O)C1CCC(C)CC1 (stereo not given)
EC50 [1]: > 8.3 µM
IC50 [3]: 3.74 µM

Cc1ccc(P(=O)(Nc2cc(-c3ccc(Cl)cc3)sc2C(=O)O)OC(C)C)c(C)c1 (stereo not given)
EC50 [1]: 2.28 µM
IC50 [3]: 0.189 µM

COP(=O)(Nc1cc(-c2ccc(-c3cc4nc(C)ccn4n3)cc2)sc1C(=O)O)c1ccc(C)cc1C (stereo not given)
EC50 [1]: 0.0007 µM
IC50 [3]: 0.0078 µM

Cc1ccc(P(=O)(Nc2cc(-c3ccc(Cl)cc3)sc2C(=O)O)OCCc2ccc(F)cc2)c(C)c1 (stereo not given)
EC50 [1]: 2.41 µM
IC50 [3]: 0.314 µM

CCOP(=O)(Nc1cc(-c2ccc(Cl)cc2)sc1C(=O)O)c1ccc(Cl)cc1C (stereo not given)
EC50 [1]: 2.92 µM
IC50 [3]: 0.081 µM

COP(=O)(Nc1cc(-c2ccc(-c3cc4ncccc4o3)cc2)sc1C(=O)O)c1ccc(C)cc1C (stereo not given)
EC50 [1]: 0.0007 µM
IC50 [3]: 0.0054 µM

CCCCOP(=O)(Nc1cc(-c2ccc(Cl)cc2)sc1C(=O)O)c1ccc(C)cc1C (stereo not given)
EC50 [1]: 2.71 µM
IC50 [3]: 0.17 µM

COP(=O)(Nc1cc(-c2ccc(-c3cc4ccccc4o3)cc2)sc1C(=O)O)c1ccc(C)cc1C (stereo not given)
EC50 [1]: 0.0017 µM
IC50 [3]: 0.0056 µM

COP(=O)(Nc1cc(-c2ccc(Cl)cc2)sc1C(=O)O)c1ccc(C)cc1C (stereo not given)
EC50 [1]: 0.66 µM
IC50 [3]: 0.021 µM

Cc1ccc(P(=O)(Nc2cc(-c3ccc(Cl)cc3)sc2C(=O)O)OCCC(C)C)c(C)c1 (stereo not given)
EC50 [1]: 3.56 µM
IC50 [3]: 0.298 µM

COP(=O)(Nc1cc(-c2ccc(Cl)cc2)sc1C(=O)O)c1ccc(Cl)cc1F (stereo not given)
EC50 [1]: 3.35 µM
IC50 [3]: 0.298 µM

COP(=O)(Nc1cc(-c2ccc(-c3cc4ccccc4s3)cc2)sc1C(=O)O)c1ccc(C)cc1C (stereo not given)
EC50 [1]: 0.0232 µM
IC50 [3]: 0.0163 µM

COP(=O)(Nc1cc(-c2ccc(-c3cc4nc(C)cc(N)n4n3)cc2)sc1C(=O)O)c1ccc(C)cc1C (stereo not given)
EC50 [1]: 0.0005 µM
IC50 [3]: 0.0051 µM
IC50 [4]: 0.009 µM

Cc1ccc(P(=O)(Nc2cc(-c3ccc(Cl)cc3)sc2C(=O)O)OCC(C)C)c(C)c1 (stereo not given)
EC50 [1]: 3.04 µM
IC50 [3]: 0.223 µM

COP(=O)(c1ccc(C)cc1C)N(c1cc(-c2ccc(F)cc2)sc1C(=O)O)C(C)C (stereo not given)
EC50 [1]: 4.19 µM
IC50 [3]: 0.517 µM

Cc1ccc(P(=O)(Nc2cc(-c3ccc(Cl)cc3)sc2C(=O)O)OCc2cc3ccccc3o2)c(C)c1 (stereo not given)
EC50 [1]: 2.7 µM
IC50 [3]: 0.425 µM

CCOP(=O)(Nc1cc(-c2ccccc2)sc1C(=O)O)C1CCC(C)CC1 (stereo not given)
EC50 [1]: > 8.3 µM
IC50 [3]: > 10 µM

C=CP(=O)(Nc1cc(-c2ccc(Cl)cc2)sc1C(=O)O)OCC (stereo not given)
EC50 [1]: > 8.3 µM
IC50 [3]: > 10000 µM

COP(=O)(Nc1cc(-c2ccc(C#CC3CC3)cc2)sc1C(=O)O)c1ccc(C)cc1C (stereo not given)
EC50 [1]: 2.47 µM
IC50 [3]: 0.0458 µM

CCCOP(=O)(Nc1cc(-c2ccc(Cl)cc2)sc1C(=O)O)c1ccc(C)cc1C (stereo not given)
EC50 [1]: 3.53 µM
IC50 [3]: 0.147 µM

COP(=O)(Nc1cc(-c2ccc(C#Cc3ccsc3)cc2)sc1C(=O)O)c1ccc(C)cc1C (stereo not given)
EC50 [1]: 0.0048 µM
IC50 [3]: 0.0092 µM

CCOP(=O)(Nc1cc(-c2ccc(Cl)cc2)sc1C(=O)O)C1CC=C(C)CC1 (stereo not given)
EC50 [1]: > 8.3 µM
IC50 [3]: 1.13 µM

COP(=O)(Nc1cc(-c2ccc(F)cc2)sc1C(=O)O)c1ccc(C)cc1C (stereo not given)
EC50 [1]: 2.14 µM
IC50 [3]: 0.118 µM

COP(=O)(c1ccc(C)cc1C)N(C)c1cc(-c2ccc(Cl)cc2)sc1C(=O)O (stereo not given)
EC50 [1]: 2.82 µM
IC50 [3]: 0.059 µM

COCCOP(=O)(Nc1cc(-c2ccc(Cl)cc2)sc1C(=O)O)c1ccc(C)cc1C (stereo not given)
EC50 [1]: 2.66 µM
IC50 [3]: 0.135 µM

CC(C)N(c1cc(-c2ccccc2)sc1C(=O)O)C(=O)[C@H]1CC[C@H](C)CC1
EC50 [1]: 0.369 to 0.6 µM
IC50 [3]: 0.035 µM
IC50 [2]: 1.5 µM
